PubChem BioAssay AID248 (DTP/NCI, 2004)
Where “and” joins values, the source holds several entries; their conditions need not be identical. Equal values may be shown once. Inconclusive results and toxic doses are left out. Rule as the data show it: active = T/C of 150% or more; inactive = T/C below 125%.

Test system: L1210 leukemia ip in BDF1 mice, survival T/C
Assay: NCI In Vivo Anticancer Drug Screen. Data for tumor model L1210 Leukemia (intraperitoneal) in B6D2F1 (BDF1) mice
Details: endpoint: mean survival time, higher = longer survival
Summary of the method: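 Tumor cells were implanted, animals were treated, and survival was followed. The result divides the treated measurement by the vehicle-control measurement.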

[1] = dose: 100.0 mg/kg/injection, schedule: Q01DX009 (ip), vehicle: Klucel (hydroxypropylcellulose) (HPC)
[2] = dose: 100.0 mg/kg/injection, schedule: Q04DX003 (ip), vehicle: Klucel (hydroxypropylcellulose) (HPC)
[3] = dose: 200.0 mg/kg/injection, schedule: Q04DX003 (ip), vehicle: Klucel (hydroxypropylcellulose) (HPC)
[4] = dose: 200.0 mg/kg/injection, schedule: Q01DX009 (ip), vehicle: Klucel (hydroxypropylcellulose) (HPC)
[5] = dose: 400.0 mg/kg/injection, schedule: Q01DX009 (ip), vehicle: Klucel (hydroxypropylcellulose) (HPC)
[6] = dose: 100.0 mg/kg/injection, schedule: Q01DX001 (ip), vehicle: saline
[7] = dose: 50.0 mg/kg/injection, schedule: Q01DX001 (ip), vehicle: carboxymethylcellulose (CMC)
[8] = dose: 100.0 mg/kg/injection, schedule: Q01DX001 (ip), vehicle: carboxymethylcellulose (CMC)
[9] = dose: 200.0 mg/kg/injection, schedule: Q01DX001 (ip), vehicle: carboxymethylcellulose (CMC)
[10] = dose: 100.0 mg/kg/injection, schedule: Q01DX001 (ip), vehicle: Klucel (hydroxypropylcellulose) (HPC)
[11] = dose: 200.0 mg/kg/injection, schedule: Q01DX001 (ip), vehicle: Klucel (hydroxypropylcellulose) (HPC)

Measured: T/C

c1ccc(-n2cc(-c3nc(N4CC4)nc(N4CC4)n3)c3ccccc32)cc1
inactive: dose: 50.0 mg/kg/injection, schedule: Q01DX009 (ip), vehicle: Klucel (hydroxypropylcellulose) (HPC) 121 % of control | [1] 103 % of control | [2] 112 % of control | [3] 118 % of control

CN(C)CCOC(=O)N1c2ccccc2C(C)(C)c2ccccc21
inactive: dose: 5.8 mg/kg/injection, schedule: Q01DX001 (ip), vehicle: water 93 % of control | dose: 11.5 mg/kg/injection, schedule: Q01DX001 (ip), vehicle: water 98 % of control | dose: 23.0 mg/kg/injection, schedule: Q01DX001 (ip), vehicle: water 91 % of control | dose: 44.4 mg/kg/injection, schedule: Q01DX001 (ip), vehicle: water 95 % of control | dose: 50.0 mg/kg/injection, schedule: Q01DX001 (ip), vehicle: water 100 % of control | dose: 66.7 mg/kg/injection, schedule: Q01DX001 (ip), vehicle: water 97 % of control | dose: 150.0 mg/kg/injection, schedule: Q01DX001 (ip), vehicle: water 95 % of control

CCCCNc1ccc(C(=O)OCCNC2CCCCC2)cc1
inactive: dose: 75.0 mg/kg/injection, schedule: Q01DX001 (ip), vehicle: saline 100 % of control | dose: 150.0 mg/kg/injection, schedule: Q01DX001 (ip), vehicle: saline 96 % of control

CNC(=O)Nc1cc(C)ccc1OC
inactive: [1] 100 % of control | [4] 104 % of control | [5] 109 % of control

CC1(C)N=C(N)N=C(N)N1c1cccc(/C=C/C=C/c2cccc([N+](=O)[O-])c2)c1
inactive: [6] 100 % of control

O=C(Nc1ccccc1NC(=O)C(Cl)(Cl)Cl)C(Cl)(Cl)Cl
inactive: dose: 87.5 mg/kg/injection, schedule: Q01DX009 (ip), vehicle: carboxymethylcellulose (CMC) 88 % of control | dose: 175.0 mg/kg/injection, schedule: Q01DX009 (ip), vehicle: carboxymethylcellulose (CMC) 93 % of control | dose: 350.0 mg/kg/injection, schedule: Q01DX009 (ip), vehicle: carboxymethylcellulose (CMC) 96 % of control

CN1CCCCC(=N\O)/C(=N/O)CCCC1
inactive: [7] 89 % of control | [8] 89 % of control | [9] 104 % of control

COC(=O)/C=C\C(=O)NC(C)(C)CC(C)(C)C
inactive: [7] 100 % of control | [8] 105 % of control | [9] 105 % of control | dose: 400.0 mg/kg/injection, schedule: Q01DX001 (ip), vehicle: carboxymethylcellulose (CMC) 96 % of control

O=P1(c2ccccc2)OCCO1
inactive: dose: 25.0 mg/kg/injection, schedule: Q01DX009 (ip), vehicle: carboxymethylcellulose (CMC) 97 % of control and 98 % of control | dose: 50.0 mg/kg/injection, schedule: Q01DX009 (ip), vehicle: carboxymethylcellulose (CMC) 100 % of control and 101 % of control | dose: 100.0 mg/kg/injection, schedule: Q01DX009 (ip), vehicle: carboxymethylcellulose (CMC) 94 % of control and 100 % of control and 101 % of control | dose: 100.0 mg/kg/injection, schedule: Q04DX002 (ip), vehicle: carboxymethylcellulose (CMC) 93 % of control and 102 % of control | dose: 100.0 mg/kg/injection, schedule: Q04DX003 (ip), vehicle: carboxymethylcellulose (CMC) 103 % of control | dose: 200.0 mg/kg/injection, schedule: Q04DX002 (ip), vehicle: carboxymethylcellulose (CMC) 96 % of control | dose: 200.0 mg/kg/injection, schedule: Q04DX003 (ip), vehicle: carboxymethylcellulose (CMC) 107 % of control | dose: 400.0 mg/kg/injection, schedule: Q04DX002 (ip), vehicle: carboxymethylcellulose (CMC) 96 % of control | dose: 400.0 mg/kg/injection, schedule: Q04DX003 (ip), vehicle: carboxymethylcellulose (CMC) 97 % of control

CCN(CC)CCOC(=O)C(O)(c1ccccc1)c1ccccc1
inactive: dose: 25.0 mg/kg/injection, schedule: Q04DX002 (ip), vehicle: saline 101 % of control | dose: 50.0 mg/kg/injection, schedule: Q04DX002 (ip), vehicle: saline 93 % of control | dose: 100.0 mg/kg/injection, schedule: Q04DX002 (ip), vehicle: saline 93 % of control and 115 % of control

CC(CO)(CO)N=Cc1ccccc1
inactive: dose: 50.0 mg/kg/injection, schedule: Q01DX001 (ip), vehicle: saline 112 % of control | [6] 112 % of control | dose: 200.0 mg/kg/injection, schedule: Q01DX001 (ip), vehicle: saline 100 % of control | dose: 400.0 mg/kg/injection, schedule: Q01DX001 (ip), vehicle: saline 100 % of control

CCOC(=O)C1C(=O)CC(=O)C(C(=O)OCC)C1C1CC=CCC1 (stereo not given)
inactive: dose: 100.0 mg/kg/injection, schedule: Q04DX002 (ip), vehicle: saline with Tween-80 91 % of control | dose: 200.0 mg/kg/injection, schedule: Q04DX002 (ip), vehicle: saline with Tween-80 94 % of control | dose: 400.0 mg/kg/injection, schedule: Q04DX002 (ip), vehicle: saline with Tween-80 94 % of control

CC(=O)OCC1OCC(OC(C)=O)C(OC(C)=O)C1OC(C)=O (stereo not given)
inactive: dose: 100.0 mg/kg/injection, schedule: Q04DX003 (ip), vehicle: saline with Tween-80 94 % of control | dose: 200.0 mg/kg/injection, schedule: Q04DX003 (ip), vehicle: saline with Tween-80 98 % of control | dose: 400.0 mg/kg/injection, schedule: Q04DX003 (ip), vehicle: saline with Tween-80 98 % of control

CC1C(=O)/C(=C/N(C)c2ccccc2)CC1C(=O)O (stereo not given)
inactive: [10] 93 % of control | [2] 100 % of control | [11] 93 % of control | [4] 97 % of control | [3] 98 % of control | dose: 400.0 mg/kg/injection, schedule: Q01DX001 (ip), vehicle: Klucel (hydroxypropylcellulose) (HPC) 87 % of control | [5] 97 % of control | dose: 400.0 mg/kg/injection, schedule: Q04DX003 (ip), vehicle: Klucel (hydroxypropylcellulose) (HPC) 98 % of control

O=C(O)CNC(=O)Nc1cccc(Cl)c1
inactive: dose: 50.0 mg/kg/injection, schedule: Q01DX001 (ip), vehicle: Klucel (hydroxypropylcellulose) (HPC) 100 % of control | [10] 105 % of control | [11] 108 % of control
